Assay results taken from US12070520B2, “Dermal delivery device” (Agile Therapeutics, Inc., priority 2007, dated 2024).

Experiment: Control of loss of volatile components: amounts in the AI patch after storage (gas chromatography)
Type: physicochemical
Experimental: A transdermal hormone delivery device was prepared comprising an internal backing layer, an AI layer, and a release liner. […] The device also comprised an overlay comprising a polyurethane spun bonded non-woven backing, which is able to absorb large amounts of the volatile excipients, DMSO and ethyl lactate, an acrylic PSA coated onto the polyurethane foam, and a PIB PSA coated on top of the acrylic PSA. […] The release liner was a Mylar polyester film coated with a fluoropolymer release coating. […] The devices were placed in a 25 C or 40 C oven. After 6 weeks and 12 weeks, devices were removed from the oven and the active section of each device was separated from the overlay. […] (12 weeks exposure to 40 C is intended to simulate 18 months exposure to room temperature (25 C)).

Row | SMILES | Amount in the AI patch (6 wks, 40 C.) [wt %] | Amount in the AI patch (12 wks, 40 C.) [wt %] | Amount in the AI patch (12 wks, room temp) [wt %]
1 | CCOC(=O)C(C)O (stereo not drawn) [Ethyl Lactate, ethyl lactate] | 1.66 | 1.57 | 1.79
2 | CCCCCCCCCCCCOC(=O)C(C)O (stereo not drawn) [Lauryl Lactate, lauryl lactate] | 9.02 | 9.20 | 9.10
3 | C[S+](C)[O-] [DMSO, dimethyl sulfoxide] | 9.02 | 8.98 | 9.08
